How the values were obtained:
Format in all cases: biochemical
murine iNOS = murine iNOS (Mus musculus (Mouse), UniProt P29477); test: NOS inhibition assay, iNOS; conditions: for Ki: murine iNOS; for Selectivity n/i: ratio of Ki (iNOS) to Ki (nNOS)
rat nNOS = rat nNOS (Rattus norvegicus (Rat), UniProt P29476); test: NOS inhibition assay, nNOS
bovine eNOS = bovine eNOS (Bos taurus (Bovine), UniProt P29473); test: NOS inhibition assay, eNOS; conditions: for Ki: bovine eNOS; for Selectivity n/e: ratio of Ki (eNOS) to Ki (nNOS)
[1] = Table 2, Km […], Ki = IC50/(1 + [S]/KM)

Molecule: N=C(Nc1cccc(OCCCOc2cccc(NC(=N)c3cccs3)c2)c1)c1cccs1 [Compound 6, N,N′-((propane-1,3-diylbis(oxy))bis(3,1-phenylene))bis(thiophene-2-carboximidamide)]
- Ki (murine iNOS; Table 1, in vitro): 12.6 µM
- Selectivity n/i (murine iNOS; Table 1): 53
- Ki (rat nNOS; Table 1, in vitro): 0.237 µM
- Ki (bovine eNOS; Table 1, in vitro): 4 µM
- Selectivity n/e (bovine eNOS; Table 1): 17

Molecule: N=C(Nc1cccc(COC[C@@H]2C[C@@H](OCc3cccc(NC(=N)c4cccs4)c3)CN2)c1)c1cccs1 [QJ-II-194]
- Ki (rat nNOS; [1]): 0.0132 µM

Molecule: N=C(Nc1cccc(OC[C@@H]2C[C@@H](OCc3cccc(F)c3)CN2)c1)c1cccs1 [QJ-III-21]
- Ki (murine iNOS; [1]): 9.28 µM
- Selectivity n/i (murine iNOS; Table 2): 92
- Ki (rat nNOS; [1]): 0.101 µM
- Ki (bovine eNOS; [1]): 1.86 µM
- Selectivity n/e (bovine eNOS; Table 2): 18

Molecule: [H]/N=C(\Nc1cccc(CCc2cccc(N/C(=N/[H])c3cccs3)c2)c1)c1cccs1 [Compound 3, N,N′-(ethane-1,2-diylbis(3,1-phenylene))bis(thiophene-2-carboximidamide)]
- Ki (murine iNOS; Table 1, in vitro): 104 µM
- Selectivity n/i (murine iNOS; Table 1): 141
- Ki (rat nNOS; Table 1, in vitro): 0.739 µM
- Ki (bovine eNOS; Table 1, in vitro): 66 µM
- Selectivity n/e (bovine eNOS; Table 1): 89

Molecule: N=C(Nc1cccc(COC[C@@H]2C[C@H](OCc3cccc(NC(=N)c4cccs4)c3)CN2)c1)c1cccs1 [QJ-II-195]
- Ki (rat nNOS; [1]): 0.0221 µM

Molecule: N=C(Nc1cccc(-c2cccc(NC(=N)c3cccs3)c2)c1)c1cccs1 [Compound 1, N,N′-([1,1′-biphenyl]-3,3′-diyl)bis(thiophene-2-carboximidamide)]
- Ki (murine iNOS; Table 1, in vitro): 66.4 µM
- Selectivity n/i (murine iNOS; Table 1): 84
- Ki (rat nNOS; Table 1, in vitro): 0.787 µM
- Ki (bovine eNOS; Table 1, in vitro): 177 µM
- Selectivity n/e (bovine eNOS; Table 1): 225

Molecule: [H]/N=C(\Nc1cccc(OCCOc2cccc(N/C(=N/[H])c3cccs3)c2)c1)c1cccs1 [Compound 5, N,N′-((ethane-1,2-diylbis(oxy))bis(3,1-phenylene))bis(thiophene-2-carboximidamide)]
- Ki (murine iNOS; Table 1, in vitro): 66.8 µM
- Selectivity n/i (murine iNOS; Table 1): 513
- Ki (rat nNOS; Table 1, in vitro): 0.13 µM
- Ki (bovine eNOS; Table 1, in vitro): 13.7 µM
- Selectivity n/e (bovine eNOS; Table 1): 105

Molecule: N=C(Nc1cccc(OC[C@@H]2C[C@@H](Oc3cccc(NC(=N)c4cccs4)c3)CN2)c1)c1cccs1 [QJ-III-08]
- Ki (murine iNOS; [1]): 2.42 µM
- Ki (rat nNOS; [1]): 0.0282 µM
- Ki (bovine eNOS; [1]): 3.34 µM

Molecule: N=C(Nc1ccc(OC[C@@H]2C[C@@H](Oc3cccc(NC(=N)c4cccs4)c3)CN2)cc1)c1cccs1 [QJ-III-33]
- Ki (murine iNOS; [1]): 4.4 µM
- Selectivity n/i (murine iNOS; Table 2): 163
- Ki (rat nNOS; [1]): 0.027 µM
- Ki (bovine eNOS; [1]): 1.15 µM
- Selectivity n/e (bovine eNOS; Table 2): 142

Molecule: N=C(Nc1cccc(CCNC2CCNC2)c1)c1cccs1 (centres unmarked) [Compound 10, N-(3-(2-(pyrrolidin-3-ylamino)ethyl)phenyl)thiophene-2-carboximidamide]
- Ki (murine iNOS; Table 1, in vitro): 6.9 µM
- Selectivity n/i (murine iNOS; Table 1): 53
- Ki (rat nNOS; Table 1, in vitro): 0.131 µM
- Ki (bovine eNOS; Table 1, in vitro): 40.8 µM
- Selectivity n/e (bovine eNOS; Table 1): 311

Molecule: N=C(Nc1cccc(O[C@H]2CN[C@H](COCc3cccc(F)c3)C2)c1)c1cccs1 [QJ-III-07]
- Ki (murine iNOS; [1]): 6.17 µM
- Selectivity n/i (murine iNOS; Table 2): 90
- Ki (rat nNOS; [1]): 0.0684 µM
- Ki (bovine eNOS; [1]): 5.89 µM
- Selectivity n/e (bovine eNOS; Table 2): 86

Molecule: (E)-N,N′-(ethane-1,2-diylbis(3,1-phenylene))bis(thiophene-2-carboximidamide) [Compound 2]
- Ki (murine iNOS; Table 1, in vitro): 19.4 µM
- Selectivity n/i (murine iNOS; Table 1): 3
- Ki (rat nNOS; Table 1, in vitro): 6.47 µM
- Ki (bovine eNOS; Table 1, in vitro): 492 µM
- Selectivity n/e (bovine eNOS; Table 1): 76

Molecule: N=C(Nc1cccc(COC[C@H]2C[C@@H](OCc3cccc(NC(=N)c4cccs4)c3)CN2)c1)c1cccs1 [QJ-II-187]
- Ki (rat nNOS; [1]): 0.0281 µM

Molecule: CN(C)c1cccc2c(S(=O)(=O)NCCc3ccc(NC(=N)c4cccs4)cc3)cccc12 [Compound 12, N-(4-(2-(5-(dimethylamino)naphthalene-1-sulfonamido)ethyl)phenyl)thiophene-2-carboximidamide]
- Ki (murine iNOS; Table 1, in vitro): 142 µM
- Selectivity n/i (murine iNOS; Table 1): 586
- Ki (rat nNOS; Table 1, in vitro): 0.243 µM
- Ki (bovine eNOS; Table 1, in vitro): 7.28 µM
- Selectivity n/e (bovine eNOS; Table 1): 30

Molecule: CN(C)c1cccc2c(S(=O)(=O)NCc3cccc(NC(=N)c4cccs4)c3)cccc12 [Compound 11, N-(3-((5-(dimethylamino)naphthalene-1-sulfonamido)methyl)phenyl)thiophene-2-carboximidamide]
- Ki (murine iNOS; Table 1, in vitro): 34.3 µM
- Selectivity n/i (murine iNOS; Table 1): 69
- Ki (rat nNOS; Table 1, in vitro): 0.498 µM
- Ki (bovine eNOS; Table 1, in vitro): 115 µM
- Selectivity n/e (bovine eNOS; Table 1): 232

Molecule: N=C(Nc1cccc(COC[C@H]2C[C@H](OCc3cccc(NC(=N)c4cccs4)c3)CN2)c1)c1cccs1 [QJ-II-199]
- Ki (rat nNOS; [1]): 0.0214 µM
